Reference: PubChem BioAssay AID1159560 (GlaxoSmithKline (GSK), 2015)
Calls of active or inactive are those of the source. The rule behind the calls is not given here.

tested on: Leishmania donovani growth inhibition; experiment: Leishmania donovani growth inhibition (AID 1159560);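 note: parasites exposed to compound for 72 h before the viability read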

| Structure (SMILES) | IC50 |
| --- | --- |
| CCCn1c(NC(=O)CCn2cc(Br)cn2)nc2ccccc21 | 10 µM |
| CCS(=O)(=O)c1cccc(C(=O)Nc2nc(-c3ccccn3)cs2)c1 | 1.3 µM |
| COc1ccc(C(=O)N2CCC(Nc3cccnc3)C2)c(OC)n1 (configuration not stated) | 16 µM |
| N#Cc1ccc(Br)cc1[N+](=O)[O-] | 7.9 µM |
| O=C(NCCc1csc(-c2ccc(F)cc2)n1)c1ccco1 | > 50 µM (inactive) |
| Cc1ccccc1OCC(=O)N1CCCN(c2cccnn2)CC1 | 13 µM |
| O=C(NCc1nnc2n1CCCCC2)c1csc(-c2ccccc2)n1 | > 50 µM (inactive) |
| CC1CCCCN1C(=O)NCCc1coc(-c2ccc(F)cc2)n1 (configuration not stated) | > 50 µM (inactive) |
| COc1ccc(C(=O)Nc2ccc(NC(=O)CO)cc2)cc1 | > 50 µM (inactive) |
| Cc1c(CNC(=O)c2ccc(Cn3cc(Cl)c([N+](=O)[O-])n3)cc2)cnn1C | > 50 µM (inactive) |
| O=C(Nc1nc(-c2ccc(F)cc2)cs1)c1ccc([N+](=O)[O-])s1 | 0.63 µM |
| C=CCN(Cc1cccs1)C(=O)CSc1nnc(-c2ccc3c(c2)OCO3)o1 | 6.3 µM |
| COc1cccc2sc(CN(C)C(=O)C3CNCCN3c3ccc(F)cc3)c(C)c12 (configuration not stated) | 32 µM |
| COCc1cnc2c(c1SCc1c(F)cccc1Cl)c(=O)n(C)c(=O)n2C | 4 µM |
| O=C(Cc1ccccc1)Nc1[nH]nc2sc(C(=O)NC3CCCC3)cc12 | 4 µM |
| Cc1nc(N2CC(C)OC(C)C2)sc1C(=O)Nc1ccc2c(c1)OCO2 (configuration not stated) | 6.3 µM |
| Cc1ccc(NC(=O)c2ccnc(N3CCCC3)c2)cc1-c1ccsc1C(N)=O | > 50 µM (inactive) |
| COc1ncc(-c2ccc3nccc(-c4ccncc4)c3c2)cc1NS(=O)(=O)C1CC1 | 1.3 µM |
| O=C(c1cccc(Nc2ncc(-c3ccc4c(c3)OCO4)cn2)c1)N1CCSC1 | 1.3 µM |
| c1cncc(CN(Cc2ccco2)Cc2cn[nH]c2-c2cccs2)c1 | 32 µM |
| Cc1ccc(Nc2nc(N)nc(CNC(c3nc4ccccc4[nH]3)C(C)C)n2)cc1 (configuration not stated) | 4 µM |
| Cc1[nH]n2c(=O)c3c(nc2c1-c1ccc(F)cc1)CCCC3 | 1.3 µM |

| Structure (SMILES) | IC50 |
| --- | --- |
| COCc1cc(Nc2ccccc2)nc(-c2ccccn2)n1 | 7.9 µM |
| CCCn1c(NC(=O)Cc2ccc(Cl)cc2)nc2ccccc21 | 40 µM |
| O=C(NC(c1ccc(Cl)cc1)c1cnccn1)C1CCN(C(=O)Nc2cccc(C(F)(F)F)c2)CC1 (configuration not stated) | 20 µM |
| CC(C)(C)C(=O)Nc1cc(C2CC2)nn1-c1nc2c(c(=O)[nH]1)CCCC2 | 0.079 µM |
| CCN(Cc1nc2ccc(C(=O)N3CCN(c4ncccn4)CC3)cc2[nH]1)C1CCCc2cccnc21 (configuration not stated) | 5 µM |
| Cc1c(C#N)c([N+](=O)[O-])nn1Cc1cccc(Cl)c1Cl | > 50 µM (inactive) |
| Cc1cccnc1CN1CCN(CCCOc2ccc(-c3ccc(C(N)=O)cc3)cc2)CC1 | > 50 µM (inactive) |
| COc1ccc(-c2cc(C)no2)cc1S(=O)(=O)Nc1ccc(C)c(C)c1 | 7.9 µM |
| NC(=O)c1ncc(N[C@@H]2CCCNC2)nc1Nc1cccc(Cl)c1 | 2.5 µM |
| Cc1[nH]nc(Nc2ccnc3[nH]ccc23)c1C | > 50 µM (inactive) |
| Cc1cc(NC(=O)C2CCCCC2)n(-c2nc3c(c(=O)[nH]2)CCC3)n1 | 0.04 µM |
| CC(C)c1sc(Cl)nc1C(=O)NCCc1nc(C(=O)Nc2ccc3c(c2)OCO3)cs1 | 4 µM |
| CC(Cn1ccnc1)NC(=O)COc1ccc(Cl)c(Cl)c1 (configuration not stated) | > 50 µM (inactive) |
| CN(C)S(=O)(=O)c1ccc(-c2cnc(N)c(-c3nc4ccc(F)cc4[nH]3)c2)cc1 | 2.5 µM |
| O=C(c1cc2cc(Cl)ccc2[nH]1)N1CCCCC1c1cccnc1 (configuration not stated) | 50 µM |
| Cc1nc2c(-c3nc(-c4ccc(N)cc4)n[nH]3)cccn2c1C | 3.2 µM |
| CS(=O)(=O)c1ccc(Nc2nccc(-c3cnn4ncccc34)n2)cc1 | 0.79 µM |
| Cc1[nH]n2c(=O)c3c(nc2c1-c1ccc(Cl)cc1)CCCC3 | 1.3 µM |
| CCN(CC)c1nc(Nc2ccncc2)nc2ccccc12 | 0.79 µM |
| Cc1ccc(C)c(OC2CCN(C(=O)C(C)n3ccnc3)CC2)c1 (configuration not stated) | 2.5 µM |
| Clc1ccc(Sc2cnccc2N2CCOCC2)cc1 | 7.9 µM |
| O=c1cc(NCCCNCc2cc(C(F)(F)F)cs2)[nH]c2ccccc12 | > 50 µM (inactive) |

| Structure (SMILES) | IC50 |
| --- | --- |
| COc1ccc(C2CC(c3ccc(NS(C)(=O)=O)cc3)=NN2C(=O)c2cccs2)cc1OC (configuration not stated) | 13 µM |
| O=[N+]([O-])c1ccc(-c2nnn(-c3cccnc3)n2)o1 | 16 µM |
| Cc1ccc(S(=O)(=O)Nc2ccc(CN3CCN(C(=O)c4cccc(C)c4)CC3)cc2)cc1 | 25 µM |
| Cc1cccc(NS(=O)(=O)c2ccc3c(c2)C(=O)c2cc(S(=O)(=O)Nc4cccc(C)c4C)ccc2-3)c1C | > 50 µM (inactive) |
| CCc1cccc(-n2nc(OCC(=O)NC3CCCC3)c3cccnc32)c1 | 2.5 µM |
| COc1ccc(NC(=O)c2ccc(NC(=O)CN(c3ccccc3C)S(C)(=O)=O)cc2)cc1 | > 50 µM (inactive) |
| COc1ccc(-c2nc3ncccc3o2)cc1NC(=O)c1cccs1 | 5 µM |
| Cn1nccc1NC(=O)Cn1ccc(-c2ccncc2)n1 | > 50 µM (inactive) |
| COc1ccccc1C(=O)Nc1nnc(-c2ccc3c(c2)OCO3)s1 | 1 µM |
| O=C(Nc1cccc(Cl)c1)N1CCCCC1c1cccnc1 (configuration not stated) | 3.2 µM |
| CC(C)(C)c1csc(NC(=O)c2ccc([N+](=O)[O-])s2)n1 | 1.6 µM |
| c1ccc(-c2nc(NC3CCCC3)c3ccccc3n2)nc1 | 4 µM |
| CCCCCNC(=O)c1c[nH]c2ccc(S(=O)(=O)N(C)c3ccc(OCC)cc3)cc2c1=O | > 50 µM (inactive) |
| CC(c1ccc2c(c1)CCCC2)N(C)c1ncc2c(N)nc(N)nc2n1 (configuration not stated) | 2.5 µM |
| CNc1cncc(C2CCCN2C(=O)Cc2coc3cc(C)ccc23)n1 (configuration not stated) | 3.2 µM |
| O=c1ccn(-c2ccc([N+](=O)[O-])cc2Cl)c2ccc(F)cc12 | > 50 µM (inactive) |
| Cc1cc(C#N)c([N+](=O)[O-])cc1Br | 25 µM |
| CNS(=O)(=O)c1ccccc1Nc1nc(Nc2cc(C)nn2C)ncc1Cl | 0.25 µM |
| COc1ccccc1-n1c(SCC(=O)Nc2ccc3c(c2)OCO3)nc2c(c1=O)SCC2 | 10 µM |
| O=C1NCCn2ccc(Nc3nc(NC4CCC(O)CC4)ncc3Cl)c21 (configuration not stated) | 2.5 µM |
| OC[C@@H](Nc1nccc(-c2c(-c3ccc(F)cc3)ncn2C2CCNCC2)n1)c1ccccc1 | > 50 µM (inactive) |
| Cc1ccc2onc(Nc3ccnc(Nc4cccc(S(C)(=O)=O)c4)n3)c2c1 | 5 µM |

| Structure (SMILES) | IC50 |
| --- | --- |
| CC1CN(Cc2ccc(C#N)cc2)CCN1c1ccc(NC(=O)c2ccccc2F)cc1 (configuration not stated) | 40 µM |
| C=CCn1nc([N+](=O)[O-])nc1Oc1ccc(Cl)cc1Cl | > 50 µM (inactive) |
| CNS(=O)(=O)c1ccccc1Nc1nc(Nc2ccnn2C)ncc1Cl | 0.2 µM |
| COc1ccc(NS(=O)(=O)c2cc(NC(=O)Cc3ccc(C)cc3)ccc2N2CCOCC2)cc1 | 40 µM |
| O=C(COc1ccccc1)Nc1ccccc1C(=O)Nc1nccs1 | > 50 µM (inactive) |
| CN1C(=O)c2ccccc2Sc2ccc(NC(=O)NCc3ccco3)cc21 | > 50 µM (inactive) |
| Cc1nc2c(-c3cccs3)c(C)nn2c(NCCO)c1C | > 50 µM (inactive) |
| CCN(Cc1ccncc1)Cc1ccc(NC(=O)c2cc(-c3ccc(F)cc3)n[nH]2)cc1 | 16 µM |
| Nc1nccc(-c2csc(Nc3ccc(Cl)cc3)n2)n1 | 4 µM |
| CC1CCCN(S(=O)(=O)c2ccc(C(=O)Nc3nc(-c4ccccn4)cs3)cc2)C1 (configuration not stated) | 1.6 µM |
| CNc1cc(C)nc(C2CN(C(=O)c3n[nH]c4ccccc34)CCO2)c1 (configuration not stated) | > 50 µM (inactive) |
| COc1ccc(NS(=O)(=O)c2cc(NC(=O)c3ccc([N+](=O)[O-])s3)ccc2OC)cc1 | 0.5 µM |
| CCN(CC)c1ncc(C(=O)c2ccc([N+](=O)[O-])o2)s1 | 5 µM |
| CN1CCCN(C(=O)c2ccc(N3CCCC3)cc2Cl)CC1 | 40 µM |
| COc1ccc2ncc(=O)n(CCN3CC[C@H](NCc4ncc(Cl)c5[nH]ncc45)[C@H](O)C3)c2n1 | > 50 µM (inactive) |
| O=C(NC1C(=O)N(c2ccccc2)C1c1cccnc1)c1ccc(Cl)s1 (configuration not stated) | 1 µM |
| O=C(Nc1ccc(-c2nc3ccccc3c(=O)[nH]2)cc1)c1cccs1 | > 50 µM (inactive) |
| O=[N+]([O-])c1ccc(C2=CC(c3ccccc3)=NCCN2)cc1 | > 50 µM (inactive) |
| Cc1nc(-c2nc(NCc3ccc(Cl)cc3)c3cccnc3c2O)n[nH]1 | 2 µM |
| O=C1CCCCCC1(Cc1cnc[nH]1)c1ccc(Cl)cc1Cl (configuration not stated) | > 50 µM (inactive) |
| Cc1cc(C)c(C#N)c(SCC(=O)c2ccc3c(c2)OCO3)n1 | > 50 µM (inactive) |
| N#Cc1c(Oc2cccc(Cl)c2)cccc1[N+](=O)[O-] | 7.9 µM |

| Structure (SMILES) | IC50 |
| --- | --- |
| Oc1cccnc1-c1n[nH]c(Cc2ccccc2)n1 | 2 µM |
| O=C(CSc1ccc(-c2ccccn2)nn1)Nc1ccc(Cl)cc1 | > 50 µM (inactive) |
| CC(C)c1cc(Nc2cc(Cc3ccccc3)nc(NC3CCC(O)CC3)n2)n[nH]1 (configuration not stated) | 3.2 µM |
| CN(C(=O)Nc1ccc2c(c1)CCN(C1CCC1)CC2)c1ccc(C#N)cc1 | 40 µM |
| CN(C)Cc1ccc(-c2ccc(S(=O)(=O)NCC3CCCO3)c(F)c2)cc1 (configuration not stated) | > 63 µM (inactive) |
| COc1ccc(CNc2nsc3ccccc23)cc1OC | 3.2 µM |
| NC(=O)c1cc(F)ccc1Nc1nc(NC2CCC(O)CC2)ncc1Br (configuration not stated) | 1.6 µM |
| CCOc1cnn(C)c(=O)c1Nc1ccc(C(=O)NCc2ccc(F)cc2)cc1 | 32 µM |
| O=C1OCc2ccc(Nc3nccc(-c4cnn5ncccc45)n3)cc21 | 0.063 µM |
| COc1ccc(C2CC(c3ccccc3Cl)=NN2C(=O)CNC(=O)C2CCCC2)cc1 (configuration not stated) | > 50 µM (inactive) |
| O=C(NCc1ccncc1)c1ccccc1N1CCCN(C(=O)Cc2ccc(F)c(F)c2)CC1 | 2.5 µM |
| Cc1cccnc1NC(=O)c1cccc(OCc2c(C)noc2C)c1 | > 50 µM (inactive) |
| CN(C)S(=O)(=O)c1cccc(CSc2nnc(-c3ccc4c(c3)OCO4)o2)c1 | 1 µM |
| CCCc1nc2nc(N)nc(N)c2cc1CC | 2 µM |
| CN(Cc1ccccc1)Cc1nnnn1C1CCN(Cc2ccc(-n3ccnc3)cc2)CC1 | > 50 µM (inactive) |
| O=C(CC1(O)C(=O)N(Cc2ccccc2)c2ccc(Br)cc21)c1cccnc1 (configuration not stated) | > 50 µM (inactive) |
| Nc1nc(-c2ccccn2)nc(N)c1Cc1c(F)cccc1Cl | 2.5 µM |
| CCOc1ccc(Nc2ccc(S(=O)(=O)N3CCN(C)CC3)cc2[N+](=O)[O-])cc1OCC | 0.79 µM |
| COc1ccc(C)cc1-c1csc(NC(=O)C(C)n2ccnc2)n1 (configuration not stated) | 3.2 µM |
